We go through 15 compounds from ChEMBL document CHEMBL4342403, “New evolutions in the BACE1 inhibitor field from 2014 to 2018” (Bioorg Med Chem Lett, 2019).

In data set [1] the target is T1, Beta-secretase 1 (Homo sapiens, UniProt P56817). Description: Inhibition of human BACE1 expressed in HEK293 cells incubated for 16 to 24 hrs by FRET assay. It counts as cell-based.
Data set [2] has as its target T1, Beta-secretase 1. Description: Inhibition of BACE1 in human SH-SY5Y cells transfected with APP695 assessed as reduction in amyloidbeta (1 to 40 residues) incubated for 24 hrs by sandwich ELlSA. It counts as cell-based.
Data set [3] addresses T2, Beta-secretase 2 (Homo sapiens, UniProt Q9Y5Z0).
T2 sequence (Q9Y5Z0 whole entry): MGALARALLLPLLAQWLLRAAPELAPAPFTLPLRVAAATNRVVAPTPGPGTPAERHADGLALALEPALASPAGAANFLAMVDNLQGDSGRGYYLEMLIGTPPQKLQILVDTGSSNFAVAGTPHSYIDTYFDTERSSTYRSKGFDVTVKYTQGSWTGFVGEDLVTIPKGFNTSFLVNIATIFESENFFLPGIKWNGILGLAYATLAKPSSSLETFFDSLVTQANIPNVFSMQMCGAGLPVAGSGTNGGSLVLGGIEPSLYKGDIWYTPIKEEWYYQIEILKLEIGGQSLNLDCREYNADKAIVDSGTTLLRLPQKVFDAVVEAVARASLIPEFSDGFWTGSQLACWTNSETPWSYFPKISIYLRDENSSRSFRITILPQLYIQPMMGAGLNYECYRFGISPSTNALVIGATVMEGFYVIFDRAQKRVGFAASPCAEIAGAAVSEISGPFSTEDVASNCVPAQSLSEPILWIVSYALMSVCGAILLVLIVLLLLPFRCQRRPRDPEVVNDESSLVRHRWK
Description: Inhibition of human BACE2 expressed in HEK293 cells incubated for 16 to 24 hrs by FRET assay. The class given is cell-based.

In data set [4] the test system is Homo sapiens. The experiment in a line: In vivo inhibition of BACE1 in human assessed as reduction in amyloidbeta(1 to 42 residues) level in CSF at 50 mg, qd administered up to 14 days relative to control. It counts as functional.
For data set [5], the system named is Homo sapiens. The experiment in a line: In vivo inhibition of BACE1 in human assessed as reduction in amyloidbeta(1 to 42 residues) level in CSF at 125 mg, qd administered up to 14 days relative to control. The class given is functional.
The subject of data set [6] is Homo sapiens. The experiment in a line: In vivo inhibition of BACE1 in human assessed as reduction in amyloidbeta(1 to 42 residues) level in CSF at 275 mg, qd administered up to 14 days relative to control. It counts as functional.
A short description of data set [7]: Dissociation constant, pKa of the compound. The class given is physicochemical.
The target of data set [8] is T1, Beta-secretase 1. The experiment in a line: Inhibition of human BACE1 (1 to 460 residues) expressed in HEK293 cells after 16 to 24 hrs by FRET assay. The class given is cell-based.
The target of data set [9] is T1, Beta-secretase 1. The experiment in a line: Inhibition of BACE1 in human SK-N-BE(2) cells expressing human APP695 assessed as reduction in amyloidbeta level incubated for 18 hrs by sandwich ELISA. It counts as cell-based. A general note: ELISA stands for enzyme-linked immunosorbent assay.
For data set [10], the target named is T1, Beta-secretase 1. Description: Inhibition of BACE1 (unknown origin) incubated for 120 mins using APP swedish mutant as substrate by FRET assay.
Data set [11] has as its target T2, Beta-secretase 2. Description: Inhibition of BACE2 (unknown origin) incubated for 450 mins using APP swedish mutant as substrate by FRET assay.
In data set [12] the test system is Canis familiaris. The experiment in a line: In vivo inhibition of BACE1 in Beagle dog assessed as reduction in amyloidbeta (1 to 42 residues) at 0.16 mg/kg, po measured at 8 hrs post dose relative to baseline. The class given is functional. The conditions noted are these: Canis lupus familiaris.
The subject of data set [13] is Canis familiaris. The experiment in a line: In vivo inhibition of BACE1 in Beagle dog assessed as reduction in amyloidbeta (1 to 42 residues) at 0.31 mg/kg, po measured at 8 hrs post dose relative to baseline. The class given is functional. The conditions noted are these: Canis lupus familiaris.
In data set [14] the test system is Canis familiaris. Description: In vivo inhibition of BACE1 in Beagle dog assessed as reduction in amyloidbeta (1 to 42 residues) at 1.25 mg/kg, po measured at 8 hrs post dose relative to baseline. It counts as functional. The following applies: Canis lupus familiaris.
For data set [15], the target named is T1, Beta-secretase 1. Description: Inhibition of BACE1 in human SK-N-BE(2) cells expressing human APP695 assessed as reduction in amyloidbeta (1 to 42 residues) level incubated for 18 hrs by sandwich ELISA. The class given is cell-based.
In data set [16] the test system is Homo sapiens. The experiment in a line: In vivo inhibition of BACE1 in human assessed as reduction in amyloidbeta40 level in CSF at 85 mg, qd administered for 3 months relative to control. It counts as functional.
Data set [17] addresses Beta-secretase 1 (Rattus norvegicus, UniProt P56819). Description: Inhibition of BACE1 in Wistar rat neuronal cell suspension after 1 to 3 days by ELISA.
Data set [18] deals with Rattus norvegicus. The experiment in a line: In vivo inhibition of BACE1 in Sprague Dawley rat assessed as reduction in amyloidbeta 40 level in brain at 10 mg/kg, po measured at 3 hrs post dose by ELISA relative to control. The class given is functional.
The subject of data set [19] is Rattus norvegicus. Description: In vivo inhibition of BACE1 in Sprague Dawley rat assessed as reduction in amyloidbeta 40 level in brain at 30 mg/kg, po measured at 3 hrs post dose by ELISA relative to control. It counts as functional.
For data set [20], the species on record is Homo sapiens. The experiment in a line: Selectivity ratio of IC50 for human BACE2 to IC50 for human BACE1.
Data set [21] addresses T1, Beta-secretase 1. The experiment in a line: Inhibition of C-terminal His6-tagged human BACE1 expressed in mammalian expression system preincubated for 1 hr followed by substrate addition and measured after 1 hr by FRET assay.
Data set [22] concerns the target T2, Beta-secretase 2. The experiment in a line: Inhibition of C-terminal His6-tagged human BACE2 expressed in mammalian expression system preincubated for 1 hr followed by substrate addition and measured after 1 hr by FRET assay.
Data set [23] deals with T1, Beta-secretase 1. The experiment in a line: Inhibition of BACE1 (unknown origin) assessed as reduction in amyloidbeta 40 level after 24 hrs by cell-based sandwich ELISA.
The target of data set [24] is T1, Beta-secretase 1. The experiment in a line: Inhibition of human BACE1 using Biotin-XSEVNLDAEFRHDSGC as substrate incubated for 2 hrs by fluorescence method.
Data set [25] concerns the target T1, Beta-secretase 1. Description: Inhibition of BACE1 in human SH-SY5Y cells expressing betaAPP assessed as reduction in amyloidbeta (1 to 40 residues) level incubated for 24 hrs by HTRF assay. It counts as cell-based. For orientation: In TR-FRET formats the signal depends on donor and acceptor labels being close together.
The target in data set [26] is T1, Beta-secretase 1. The experiment in a line: Inhibition of BACE1 in HEK293 cells harboring APP assessed as reduction in amyloidbeta 40 level incubated for 18 to 20 hrs by AlphaLISA Assay. It counts as cell-based. For orientation: Alpha assays give light when donor and acceptor beads are brought close together.
For a further data set, the system named is Mus musculus. The experiment in a line: In vivo inhibition of BACE1 in C57B1/6J mouse assessed as reduction in amyloidbeta 40 level in brain at 30 mg/kg, po measured at 4 hrs post dose by ELISA relative to control. The class given is functional.
The target in data set [27] is T1, Beta-secretase 1. The experiment in a line: Inhibition of human BACE1 using Biotin-XSEVNLDAEFRHDSGC as substrate incubated for […] by fluorescence method.

SMILES strings stand for the structures. Where only a bound is given, the exact number is not on record here.

T1 sequence (P56817 whole entry, the tested form may be a part): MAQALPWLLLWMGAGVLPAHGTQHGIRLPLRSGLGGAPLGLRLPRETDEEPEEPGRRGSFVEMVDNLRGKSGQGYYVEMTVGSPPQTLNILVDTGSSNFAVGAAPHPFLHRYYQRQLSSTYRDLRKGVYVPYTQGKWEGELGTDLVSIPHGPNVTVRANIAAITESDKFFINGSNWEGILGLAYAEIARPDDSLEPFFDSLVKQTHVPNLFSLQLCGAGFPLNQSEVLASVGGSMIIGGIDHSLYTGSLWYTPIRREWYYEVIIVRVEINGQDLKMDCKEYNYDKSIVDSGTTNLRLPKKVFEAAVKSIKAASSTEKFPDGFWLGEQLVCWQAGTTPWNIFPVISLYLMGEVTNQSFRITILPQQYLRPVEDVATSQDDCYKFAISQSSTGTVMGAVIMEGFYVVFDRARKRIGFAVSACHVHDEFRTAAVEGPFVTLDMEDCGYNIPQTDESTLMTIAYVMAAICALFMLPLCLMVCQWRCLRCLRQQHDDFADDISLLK
Beta-secretase 1 (Rattus norvegicus, UniProt P56819), sequence (P56819 whole entry): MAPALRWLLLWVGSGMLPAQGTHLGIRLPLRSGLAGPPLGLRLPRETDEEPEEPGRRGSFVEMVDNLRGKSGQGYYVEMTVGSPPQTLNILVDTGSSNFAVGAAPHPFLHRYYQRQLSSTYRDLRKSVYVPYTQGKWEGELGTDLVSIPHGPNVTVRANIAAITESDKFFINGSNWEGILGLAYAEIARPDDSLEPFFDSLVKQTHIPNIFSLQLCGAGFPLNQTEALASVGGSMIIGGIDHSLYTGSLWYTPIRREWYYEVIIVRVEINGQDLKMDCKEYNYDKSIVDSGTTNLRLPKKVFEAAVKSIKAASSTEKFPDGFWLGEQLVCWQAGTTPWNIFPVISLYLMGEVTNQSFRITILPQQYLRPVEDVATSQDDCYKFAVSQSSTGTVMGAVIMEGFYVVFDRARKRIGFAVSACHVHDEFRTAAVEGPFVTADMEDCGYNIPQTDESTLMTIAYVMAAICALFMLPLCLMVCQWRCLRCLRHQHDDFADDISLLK

Regarding `CC(F)(F)[C@H]1OC[C@]2(c3cc(NC(=O)c4ccc(C(F)(F)F)cn4)ccc3F)N=C(N)SC[C@H]12`, the results for the half-inhibitory concentration (IC50) against Beta-secretase 1 [1], at Beta-secretase 1 [2] and against Beta-secretase 2 [3] were 11.9 nM, 1.03 nM and 602 nM, respectively.

Turning to `C[C@H]1C[C@H]2CSC(N)=N[C@@]2(c2nc(NC(=O)c3ccc(OC(F)F)cn3)cs2)CO1`, the “inhibition (INH)” value in the data set on Homo sapiens [4] was found to be 69%; with Homo sapiens [5] it was 84%; with Homo sapiens [6], 93%. The compound also gave a pKa in data set [7] of 6.9.

For the compound `COc1cnc(C(=O)Nc2ccnc([C@]34CN(c5ncc(F)cn5)C[C@H]3CSC(N)=N4)c2)cn1`, the IC50 against Beta-secretase 1 [8] turned out to be 0.9 nM.

For the compound `COc1ncc(C(=O)NC2CC2)c2c1C[C@]1(c3ccc(F)cc3F)N=C(N)SC[C@@H]1C2`, on Beta-secretase 1 [9], the 50% inhibitory concentration (IC50) came to 9.6 nM.

Turning to `C[C@@]1(S(C)(=O)=O)CC[C@@](CF)(c2cc(NC(=O)c3ccc(OCF)cn3)ccc2F)N=C1N`, the figures for the concentration for half-maximal inhibition (IC50) at Beta-secretase 1 [10], against Beta-secretase 2 [11] and at Beta-secretase 1 [15] were 2.2 nM, 16.6 nM and 1.6 nM, respectively. Besides, in the data set with Canis familiaris [12], the inhibition in vivo at 0.16 mg/kg turned out to be 71%. In the data set with Canis familiaris [13], the inhibition in vivo at 0.31 mg/kg came out at 78%. Moreover, in the data set on Canis familiaris [14], the inhibition in vivo at 1.25 mg/kg is 89%.

Consider `COc1ccc(C(=O)Nc2ccc(F)c([C@]3(C)CC[C@@](C)(C#N)C(N)=N3)c2)nc1`, for which the values for the concentration for half-maximal inhibition (IC50) against Beta-secretase 1 [10], on Beta-secretase 2 [11] and at Beta-secretase 1 [15] were 9.8 nM, 66 nM and 6.9 nM, respectively.

`C[C@@]1(c2nc(NC(=O)c3ncc(C(F)(F)F)cc3Cl)ccc2F)CO[C@@](C)(C(F)(F)F)C(N)=N1`: in the data set with Homo sapiens [16], the “inhibition (INH)” value was over 90%.

Take `COc1cnc(C(=O)Nc2ccc(F)c([C@]34CO[C@H](C(F)(F)F)[C@H]3CSC(N)=N4)c2)cn1`: the half-inhibitory concentration (IC50) against Beta-secretase 1 [17] amounted to 8 nM.

For `COc1ccc(C(=O)Nc2ccc(F)c([C@]34COC[C@@]3(F)C[C@](C)(F)C(N)=N4)c2)nc1`, the inhibition in vivo at 10 mg/kg in the data set with Rattus norvegicus [18] worked out at 48%. In addition, the inhibition in vivo at 30 mg/kg in the data set with Rattus norvegicus [19] worked out at 64%.

For `CC(F)(F)[C@H]1OC[C@]2(c3cc(NC(=O)c4cnc(-n5cncn5)cn4)ccc3F)N=C(N)SC[C@H]12`, in the data set listed under Homo sapiens [20], the Ratio IC50 is over 400.

As to `COc1nc(N2C[C@H]3CSC(N)=N[C@@]3(c3ccns3)C2)nc(C)c1F`, the IC50 against Beta-secretase 1 [8] amounted to 172 nM.

With `NC1=N[C@](CF)(c2cc(NC(=O)c3cnc(Cl)cn3)cc(F)c2F)[C@H]2[C@@H](S1)C2(F)F`, the values for the IC50 against Beta-secretase 1 [21], at Beta-secretase 2 [22] and at Beta-secretase 1 [23] were 15.2 nM, 3.02 nM and 11.2 nM, respectively.

As for `C[C@H]1SC(N)=N[C@](C)(c2cc(NC(=O)c3ccc(OC(F)F)cn3)ccc2F)[C@H]1F`, the results for the 50% inhibitory concentration (IC50) on Beta-secretase 1 [24] and on Beta-secretase 1 [25] were 4.77 nM and 1.2 nM, respectively.

Take `Cc1cc(C#N)cnc1C(=O)Nc1ccc(F)c([C@]2(C)CS3(=O)=NCCCCC3(C)C(N)=N2)c1` (some centres not stated): the IC50 on Beta-secretase 1 [26] was 0.2 nM. Besides, the inhibition in vivo at 30 mg/kg with Mus musculus came out at 52%.

Consider `C[C@]1(c2cc(NC(=O)c3ccc(C#N)cn3)ccc2F)N=C(N)OC2(COC2)[C@H]1F`, for which the half-maximal inhibitory concentration (IC50) on Beta-secretase 1 [27] was 20.7 nM.

The IC50 is the midpoint of a concentration-inhibition curve. For orientation: pKa means the pH at which an ionisable group is half protonated. Low values mean a stronger acid or weaker base, high ones a weaker acid or stronger base. One may read the inhibition in vivo as the share of the control response that was lost under treatment.
